Experimental data: ChEMBL document CHEMBL1201861, “Genomics of Drug Sensitity in Cancer screening data, Wellcome Trust Sanger Institute”
Values joined by “and” are separate entries in the source; they are usually repeats but may differ in a detail not shown here. Equal values may be shown once.

Columns and labels:
Assay in all cases: cells
[1] = test system: EFM-19; format: functional, cell-based, Homo sapiens;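 note: growth inhibition of human EFM-19 cells, measured in a cell viability assay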
Description: SANGER: Inhibition of human EFM-19 cell growth in a cell viability assay.

[2] = test system: DMS-114; format: functional, cell-based, Homo sapiens
[3] = test system: RCM-1; format: functional, cell-based, Homo sapiens;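 note: growth inhibition of the RCM-1 line, determined with a cell viability readout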
Description: SANGER: Inhibition of human RCM-1 cell growth in a cell viability assay.

[4] = test system: K5; format: functional, cell-based, Homo sapiens
[5] = test system: SW1088; format: functional, cell-based, Homo sapiens;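 note: growth inhibition of human SW1088 cells, read out by a cell viability assay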
Description: SANGER: Inhibition of human SW1088 cell growth in a cell viability assay.

[6] = test system: JEG-3; format: functional, cell-based, Homo sapiens;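 note: growth inhibition of human JEG-3 cells, read out with a cell viability assay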
Description: SANGER: Inhibition of human JEG-3 cell growth in a cell viability assay.

[7] = test system: OE33; format: functional, cell-based, Homo sapiens;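 note: growth inhibition of human OE33 cells, measured by a cell viability assay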
Description: SANGER: Inhibition of human OE33 cell growth in a cell viability assay.

[8] = test system: MMAC-SF; format: functional, cell-based, Homo sapiens;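 note: growth inhibition of human MMAC-SF cells, read out with a cell viability assay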
Description: SANGER: Inhibition of human MMAC-SF cell growth in a cell viability assay.

[9] = test system: Daoy; format: functional, cell-based, Homo sapiens;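 note: daoy cell growth inhibition, read out as cell viability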
Description: SANGER: Inhibition of human Daoy cell growth in a cell viability assay.

[10] = test system: HT-1080; format: functional, cell-based, Homo sapiens
Description: SANGER: Inhibition of human HT-1080 cell growth in a cell viability assay.

[11] = test system: HGC-27; format: functional, cell-based, Homo sapiens;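 note: growth inhibition of human HGC-27 cells, read out in a cell viability assay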
Description: SANGER: Inhibition of human HGC-27 cell growth in a cell viability assay.

[12] = test system: BFTC-909; format: functional, cell-based, Homo sapiens
Description: SANGER: Inhibition of human BFTC-909 cell growth in a cell viability assay.

[13] = test system: SW48; format: functional, cell-based, Homo sapiens;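 note: growth inhibition of SW48 cells, read out with a cell viability assay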
Description: SANGER: Inhibition of human SW48 cell growth in a cell viability assay.

[14] = test system: MKN-45; format: functional, cell-based, Homo sapiens;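 note: growth inhibition of human MKN-45 cells, measured with a cell viability assay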
[15] = test system: ESS-1; format: functional, cell-based, Homo sapiens;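 note: growth inhibition of human ESS-1 cells, read out by a cell viability assay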
Description: SANGER: Inhibition of human ESS-1 cell growth in a cell viability assay.

[16] = test system: ATN-1; format: functional, cell-based; settings: Homo sapiens;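 note: growth inhibition of human ATN-1 cells, read out with a cell viability assay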
Description: SANGER: Inhibition of human ATN-1 cell growth in a cell viability assay.

[17] = test system: NCI-H1304; format: functional, cell-based; settings: Homo sapiens;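 note: growth inhibition of the cancer cell line, measured in a cell viability assay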
Description: SANGER: Inhibition of human NCI-H1304 cell growth in a cell viability assay.

[18] = test system: NCI-H446; format: functional, cell-based; settings: Homo sapiens;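 note: growth inhibition of NCI-H446 cells determined by a cell viability assay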
Description: SANGER: Inhibition of human NCI-H446 cell growth in a cell viability assay.

[19] = test system: RERF-LC-MS; format: functional, cell-based, Homo sapiens;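 note: growth inhibition of human RERF-LC-MS cells, read out by a cell viability assay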
Description: SANGER: Inhibition of human RERF-LC-MS cell growth in a cell viability assay.

[20] = test system: MDA-MB-361; format: functional, cell-based, Homo sapiens
[21] = test system: SNB-75; format: functional, cell-based, Homo sapiens;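 note: cell viability assay measuring growth inhibition of human SNB-75 cells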
Description: SANGER: Inhibition of human SNB75 cell growth in a cell viability assay.

[22] = test system: RD; format: functional, cell-based, Homo sapiens
Description: SANGER: Inhibition of human RD cell growth in a cell viability assay.

[23] = test system: KP-4; format: functional, cell-based, Homo sapiens; settings: read-out: IC50;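 note: human KP-4 cells, with growth inhibition read out through a cell viability assay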
Description: SANGER: Inhibition of human KP-4 cell growth in a cell viability assay.

[24] = test system: EGI-1; format: functional, cell-based, Homo sapiens;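 note: cell viability readout used to gauge growth inhibition of EGI-1 cells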
Description: SANGER: Inhibition of human EGI-1 cell growth in a cell viability assay.

[25] = test system: MEL-HO; format: functional, cell-based, Homo sapiens
Description: SANGER: Inhibition of human MEL-HO cell growth in a cell viability assay.

[26] = test system: L-428; format: functional, cell-based; settings: Homo sapiens
Description: SANGER: Inhibition of human L-428 cell growth in a cell viability assay.

[27] = test system: DBTRG-05MG; format: functional, cell-based, Homo sapiens;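 note: cell viability assay measuring growth inhibition of human DBTRG-05MG cells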
Description: SANGER: Inhibition of human DBTRG-05MG cell growth in a cell viability assay.

[28] = test system: KYSE-140; format: functional, cell-based, Homo sapiens;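 note: cell viability assay measuring growth inhibition in human KYSE-140 cells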
Description: SANGER: Inhibition of human KYSE-140 cell growth in a cell viability assay.

[29] = test system: KG-1; format: functional, cell-based; settings: Homo sapiens;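 note: growth inhibition of KG-1 cells, read out by a cell viability assay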
Description: SANGER: Inhibition of human KG-1 cell growth in a cell viability assay.

[30] = test system: LB373-MEL-D; format: functional, cell-based, Homo sapiens;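 note: growth inhibition of the cell line, read out in a cell viability assay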
Description: SANGER: Inhibition of human LB373-MEL-D cell growth in a cell viability assay.

[31] = test system: NCI-H1993; format: functional, cell-based, Homo sapiens;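 note: growth inhibition of the cancer cell line, assessed with a cell viability assay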
Description: SANGER: Inhibition of human NCI-H1993 cell growth in a cell viability assay.

[32] = test system: MFH-ino; format: functional, cell-based; settings: Homo sapiens;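 note: growth inhibition of human MFH-ino cells, read out by a cell viability assay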
Description: SANGER: Inhibition of human MFH-ino cell growth in a cell viability assay.

[33] = test system: NCI-H2405; format: functional, cell-based, Homo sapiens;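 note: growth inhibition of the human cell line, read out with a cell viability assay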
Description: SANGER: Inhibition of human NCI-H2405 cell growth in a cell viability assay.

[34] = test system: LB2241-RCC; format: functional, cell-based, Homo sapiens;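 note: cell viability assay measuring how strongly the cultured human renal carcinoma line is prevented from growing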
Description: SANGER: Inhibition of human LB2241-RCC cell growth in a cell viability assay.

[35] = test system: C32; format: functional, cell-based, Homo sapiens;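 note: cell viability assay, with IC50 reflecting inhibition of C32 cell growth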
Description: SANGER: Inhibition of human C32 cell growth in a cell viability assay.

[36] = test system: EKVX; format: functional, cell-based, Homo sapiens;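 note: growth inhibition of human EKVX cells, read out with a cell viability assay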
Description: SANGER: Inhibition of human EKVX cell growth in a cell viability assay.

[37] = test system: D-392MG; format: functional, cell-based, Homo sapiens
[38] = test system: SW13; format: functional, cell-based, Homo sapiens;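 note: IC50 is inhibition of SW13 cell growth, read out with a cell viability assay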
Description: SANGER: Inhibition of human SW13 cell growth in a cell viability assay.

[39] = test system: IA-LM; format: functional, cell-based, Homo sapiens;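 note: cell viability assay measuring growth inhibition of human IA-LM cells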
Description: SANGER: Inhibition of human IA-LM cell growth in a cell viability assay.

[40] = test system: RCC10RGB; format: functional, cell-based, Homo sapiens;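 note: growth inhibition of human RCC10RGB cells, read out by a cell viability assay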
Description: SANGER: Inhibition of human RCC10RGB cell growth in a cell viability assay.

[41] = test system: CW-2; format: functional, cell-based, Homo sapiens;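 note: growth inhibition of CW-2 cells, read out by a cell viability assay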
Description: SANGER: Inhibition of human CW-2 cell growth in a cell viability assay.

[42] = test system: LS-411N; format: functional, cell-based, Homo sapiens
[43] = test system: KM-H2; format: functional, cell-based; settings: Homo sapiens;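 note: growth inhibition of KM-H2 cells, read out by a cell viability assay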
Description: SANGER: Inhibition of human KM-H2 cell growth in a cell viability assay.

[44] = test system: IST-MES1; format: functional, cell-based, Homo sapiens;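 note: growth inhibition of IST-MES1 cells, measured with a cell viability assay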
Description: SANGER: Inhibition of human IST-MES1 cell growth in a cell viability assay.

[45] = test system: NUGC-3; format: functional, cell-based, Homo sapiens;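 note: growth inhibition of human NUGC-3 cells, read out with a cell viability assay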
Description: SANGER: Inhibition of human NUGC-3 cell growth in a cell viability assay.

[46] = test system: Mo; format: functional, cell-based; settings: Homo sapiens
Description: SANGER: Inhibition of human Mo-T cell growth in a cell viability assay.

[47] = test system: NKM-1; format: functional, cell-based; settings: Homo sapiens;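 note: growth inhibition of NKM-1 cells, read out with a cell viability assay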
[48] = test system: HLE; format: functional, cell-based, Homo sapiens;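 note: growth inhibition of human HLE cells, read out by a cell viability assay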
Description: SANGER: Inhibition of human HLE cell growth in a cell viability assay.

[49] = test system: HCC1937; format: functional, cell-based, Homo sapiens;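 note: growth inhibition measured with a cell viability read-out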
Description: SANGER: Inhibition of human HCC1937 cell growth in a cell viability assay.

[50] = test system: DK-MG; format: functional, cell-based, Homo sapiens;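 note: growth inhibition of DK-MG cells, read out with a cell viability assay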
Description: SANGER: Inhibition of human DK-MG cell growth in a cell viability assay.

## CN(C)C/C=C/C(=O)Nc1cc2c(Nc3ccc(F)c(Cl)c3)ncnc2cc1O[C@H]1CCOC1 [AFATINIB]
[1]; Homo sapiens, EFM-19
  IC50: > 500 nM
[2]; Homo sapiens, DMS-114
  IC50: > 500 nM
[3]; Homo sapiens, RCM-1
  IC50: > 500 nM
[4]; Homo sapiens, K5
  IC50: > 500 nM
[5]; Homo sapiens, SW1088
  IC50: > 500 nM
[6]; Homo sapiens, JEG-3
  IC50: > 500 nM
[7]; Homo sapiens, OE33
  IC50: > 500 nM
[8]; Homo sapiens, MMAC-SF
  IC50: > 500 nM
[9]; Homo sapiens, Daoy
  IC50: > 500 nM
[10]; Homo sapiens, HT-1080
  IC50: > 500 nM
[11]; Homo sapiens, HGC-27
  IC50: > 500 nM
[12]; Homo sapiens, BFTC-909
  IC50: > 500 nM
[13]; Homo sapiens, SW48
  IC50: > 500 nM
[14]; Homo sapiens, MKN-45
  IC50: > 500 nM
[15]; Homo sapiens, ESS-1
  IC50: > 500 nM
[16]
  IC50: > 500 nM
[17]
  IC50: > 500 nM
[18]
  IC50: > 500 nM
[19]; Homo sapiens, RERF-LC-MS
  IC50: > 500 nM
[20]; Homo sapiens, MDA-MB-361
  IC50: > 500 nM
[21]; Homo sapiens, SNB-75
  IC50: > 500 nM
[22]; Homo sapiens, RD
  IC50: > 500 nM
[23]; Homo sapiens, KP-4
  IC50: > 500 nM
[24]; Homo sapiens, EGI-1
  IC50: > 500 nM
[25]; Homo sapiens, MEL-HO
  IC50: > 500 nM
[26]
  IC50: > 500 nM
[27]; Homo sapiens, DBTRG-05MG
  IC50: > 500 nM
[28]; Homo sapiens, KYSE-140
  IC50: 83.3 nM
[29]
  IC50: > 500 nM
[30]; Homo sapiens, LB373-MEL-D
  IC50: > 500 nM
[31]; Homo sapiens, NCI-H1993
  IC50: > 500 nM
[32]
  IC50: > 500 nM
[33]; Homo sapiens, NCI-H2405
  IC50: > 500 nM
[34]; Homo sapiens, LB2241-RCC
  IC50: 109 nM
[35]; Homo sapiens, C32
  IC50: > 500 nM
[36]; Homo sapiens, EKVX
  IC50: > 500 nM
[37]; Homo sapiens, D-392MG
  IC50: > 500 nM
[38]; Homo sapiens, SW13
  IC50: 162 nM
[39]; Homo sapiens, IA-LM
  IC50: > 500 nM
[40]; Homo sapiens, RCC10RGB
  IC50: > 500 nM
[41]; Homo sapiens, CW-2
  IC50: 469 nM
[42]; Homo sapiens, LS-411N
  IC50: > 500 nM
[43]
  IC50: > 500 nM
[44]; Homo sapiens, IST-MES1
  IC50: > 500 nM
[45]; Homo sapiens, NUGC-3
  IC50: 384 nM
[46]
  IC50: > 500 nM
[47]
  IC50: > 500 nM
[48]; Homo sapiens, HLE
  IC50: 350 nM
[49]; Homo sapiens, HCC1937
  IC50: > 500 nM
[50]; Homo sapiens, DK-MG
  IC50: > 500 nM

## Cc1cc([C@@H](C)Nc2ccccc2C(=O)O)c2nc(N3CCOCC3)cc(=O)n2c1 [AZD-6482]
[1]; efm-19
  IC50: > 5120 nM
[2]; dms-114
  IC50: > 5120 nM
[3]; rcm-1
  IC50: > 5120 nM
[4]; Homo sapiens, K5
  IC50: > 5120 nM
[4]; k5
  IC50: > 5120 nM
[5]; Homo sapiens, SW1088
  IC50: 2480 nM
[5]; sw1088
  IC50: 2010 nM
[6]; jeg-3
  IC50: > 5120 nM
[7]; oe33
  IC50: > 5120 nM
[8]; mmac-sf
  IC50: > 5120 nM
[9]; Homo sapiens, Daoy
  IC50: > 5120 nM
[9]; daoy
  IC50: > 5120 nM
[10]; ht-1080
  IC50: > 5120 nM
[11]; hgc-27
  IC50: 1180 nM and > 5120 nM
[12]; bftc-909
  IC50: > 5120 nM
[13]; Homo sapiens, SW48
  IC50: > 5120 nM
[13]; sw48
  IC50: > 5120 nM
[14]; Homo sapiens, MKN-45
  IC50: > 5120 nM
[14]; mkn-45
  IC50: > 5120 nM
[15]; Homo sapiens, ESS-1
  IC50: > 5120 nM
[15]; ess-1
  IC50: > 5120 nM
[16]
  IC50: > 5120 nM
[17]
  IC50: > 5120 nM
[18]
  IC50: > 5120 nM
[19]; rerf-lc-ms
  IC50: > 5120 nM and 4340 nM
[20]; Homo sapiens, MDA-MB-361
  IC50: 3530 nM
[20]; mda-mb-361
  IC50: > 5120 nM
[21]; Homo sapiens, SNB-75
  IC50: 1670 nM
[21]; snb-75
  IC50: 3150 nM
[22]; Homo sapiens, RD
  IC50: > 5120 nM
[22]; rd
  IC50: > 5120 nM
[23]; kp-4
  IC50: > 5120 nM
[24]; egi-1
  IC50: > 5120 nM
[25]; mel-ho
  IC50: 1240 nM and > 5120 nM
[26]
  IC50: > 5120 nM
[27]; dbtrg-05mg
  IC50: > 5120 nM
[28]; kyse-140
  IC50: > 5120 nM
[29]
  IC50: > 5120 nM
[30]; lb373-mel-d
  IC50: > 5120 nM
[31]; nci-h1993
  IC50: > 5120 nM
[32]
  IC50: > 5120 nM
[33]; nci-h2405
  IC50: > 5120 nM
[34]; lb2241-rcc
  IC50: > 5120 nM and 1320 nM
[35]; c32
  IC50: > 5120 nM
[36]; ekvx
  IC50: > 5120 nM
[37]; d-392mg
  IC50: > 5120 nM
[38]; Homo sapiens, SW13
  IC50: > 5120 nM
[38]; sw13
  IC50: > 5120 nM
[39]; ia-lm
  IC50: > 5120 nM
[40]; rcc10rgb
  IC50: > 5120 nM
[41]; cw-2
  IC50: > 5120 nM
[42]; Homo sapiens, LS-411N
  IC50: > 5120 nM
[42]; ls-411n
  IC50: > 5120 nM
[43]
  IC50: > 5120 nM
[44]; ist-mes1
  IC50: > 5120 nM
[45]; nugc-3
  IC50: > 5120 nM
[46]
  IC50: > 5120 nM
[47]
  IC50: 1290 nM
[48]; hle
  IC50: > 5120 nM
[49]; hcc1937
  IC50: > 5120 nM
[50]; dk-mg
  IC50: > 5120 nM
